From patent US20140161720A1, “TREATMENT OF ANGIOGENIC- OR VASCULAR-ASSOCIATED DISEASES” (THE GENERAL HOSPITAL CORPORATION, priority 2011, published 2014)
Entries after “also recorded” stand apart in the source; their conditions may differ.

Columns and labels:
[1] = Toxicity of intraperitoneal DAL in SCID mice; format: in vivo; settings: intraperitoneal doses of up to 100 mg/kg
Protocol: A cell-based readout system was used for compound selection. For the cell-based screening, an optimal cell density of 10,000 breast cancer MDA-MB-231 cells/well was selected to produce the most prominent signal. The plated cells were incubated with each library compound, washed with PBS, and the Cell Titer-Glo (Promega) reagent was used to detect the number of cells remaining attached in each well. This ATP-based detection has a linear relationship between the luminescent signal and the number of cells per well. Of the 50,000 compounds screened, 86 library compounds (0.172% of screened compounds) were selected at 1.67 μM concentration for the second screening step. […] As a further test of toxicity, DAL was injected intraperitoneally at 100 mg/kg in SCID mice and signs of toxicity including cachexia, ruffled fur, diarrhea, anorexia, skin ulceration, and toxic death were monitored.
A screening strategy was developed to identify potential agents that target adhesion of endothelial cells or cancer cells to their substrate. […] The initial screening step quantified the number of cells remaining attached to their wells following incubation with each compound and subsequent washing steps. […] The agents that affect cell adhesion can be monitored through remodeling of actin filaments. […] Changes in actin assembly and cell shape after treatment with 12 compounds were determined. […]

[2] = tested on: Tg(fli1:EGFP)^y1 zebrafish embryos; assay: Vascular development in zebrafish embryos; format: in vivo
Protocol: Zebrafish were raised in accordance with the established protocols (19-20). The age of embryos is indicated by the hours after fertilization and days after fertilization for all experimental data shown herein. For the screening study, zebrafish embryos were incubated with the selected compounds at a concentration of 5-10 μM. Treated embryos were then examined under a 100× PlanNeofluor objective mounted on a Nikon TE-200 epifluorescence microscope. Images of embryos bearing GFP-positive cells were captured with a Zeiss stereomicroscope.
To elucidate the potential impact of DAL on the process of vascular network formation, its effects in zebrafish embryos at different stages of development were assessed. To visualize vessel defects, transgenic fish expressing EGFP in endothelial cells (Tg(fli1:EGFP)^y1) were used (19-20). This model expresses EGFP in blood vessel ECs throughout normal development and during fin regeneration (21). The effects of DAL on normal vascular development in zebrafish embryos were first characterized. In control embryos, developing vessels migrated from the lateral plate mesoderm to the midline, where they coalesced into a vascular cord. These endothelial clusters subsequently established the pattern of the dorsal aorta and posterior cardinal vein. Intersomitic vessels sprouted at designated branch sites in control embryos after dorsal aorta formation.

[3] = design: species or system female SCID mice; settings: mouse, in vivo, ip, 37.5 mg/kg
Protocol: To assess the anti-tumor effects of DAL, female SCID mice bearing orthotopic 4T1 or E0771 mammary tumors were treated with daily i.p. injections of 37.5 mg/kg DAL or saline. In order to calculate tumor volumes, the major and minor axis diameters were measured with calipers and the tumor volume was calculated by assuming a spherical shape based on the average of these two dimensions. The tumors were implanted in the mammary fat pad and allowed to grow to a starting size (small ˜100 mm^3 tumors for E0771, large ˜200 mm^3 tumors for 4T1) over ˜2 weeks. To ensure that tumors in the two groups were of similar growth rates, the treatment with saline or DAL was begun in pairs of tumors with similar sizes and growth times. Tumor volumes were measured every other day until the tumors reached an average of ˜10 mm in diameter. Tumor growth was quantified with the doubling rate, and calculated by fitting an exponential growth curve to the data for tumor size versus time.
As shown in Example 3, DAL has an antivascular effect in orthotopic mammary tumors in mice. Thus, the antitumor effect of DAL was next assessed. […] The effect of DAL on the growth of orthotopic 4T1 and E0771 mammary tumors with daily treatment of DAL or saline was evaluated (FIG. 4A). 37.5 mg/kg of DAL was used for these experiments based on the pharmacokinetics results as well as in vitro and in vivo data. […]

[4] = tested on: Rac1 mRNA; assay: Rac1 mRNA expression by quantitative PCR; format: cell-based

CC1(C)C=CC2=C(O1)C(=O)c1ccccc1C2=O [DAL, dehydro-alpha-lapachone]
signs of toxicity (cachexia, ruffled fur, diarrhea, anorexia, skin ulceration, toxic death) [1]: low toxicity; also recorded: no signs of toxicity
complexity of the arterial network ([2]; zebrafish embryos): profound reduction
vessel branch formation / sprouting of intersomitic vessels ([2]; zebrafish embryos 48 hours after fertilization, DAL 5 μM): failed to occur; also recorded: failed to form vessel branches
weight loss or other signs of toxicity [3]: no weight loss or other noted signs of toxicity
expression levels of Rac1 mRNA [4]: did not change
